Test results reported in patent publication US20180042943A1, “METHODS FOR MODULATING BONE DENSITY” (Intercept Pharmaceuticals, Inc., priority 2015, published 2018).
Entries after “also recorded” stand apart in the source; their conditions may differ.

Assays:
[1] = DEXA scan of the femoral neck (T-score, Z-score, BMD) in PBC subjects, 12 months OCA or placebo; format: in vivo, human; settings: for Femoral Neck Scan: Bone Mineral Density, Change From Baseline, Mean / Femoral Neck Scan: Bone Mineral Density, Change From Baseline, Median / Femoral Neck Scan: Bone Mineral Density, Result, Mean / Femoral Neck Scan: Bone Mineral Density, Result, Median / Femoral Neck Scan: T-Score, Change From Baseline, Mean / Femoral Neck Scan: T-Score, Change From Baseline, Median / Femoral Neck Scan: T-Score, Result, Mean / Femoral Neck Scan: T-Score, Result, Median / Femoral Neck Scan: Z-Score, Change From Baseline, Mean / Femoral Neck Scan: Z-Score, Change From Baseline, Median / Femoral Neck Scan: Z-Score, Result, Mean / Femoral Neck Scan: Z-Score, Result, Median / Femoral Neck Scan: Bone Mineral Density, Change From Baseline, LS Mean / Femoral Neck Scan: Bone Mineral Density, Change From Baseline, OCA - Placebo mean difference / Femoral Neck Scan: T-Score, Change From Baseline, LS Mean / Femoral Neck Scan: T-Score, Change From Baseline, OCA - Placebo mean difference / Femoral Neck Scan: Z-Score, Change From Baseline, LS Mean / Femoral Neck Scan: Z-Score, Change From Baseline, OCA - Placebo mean difference: orally once daily, DB Month 12, subjects with PBC; for Femoral Neck Scan: Bone Mineral Density, Change From Baseline, LS Mean / Femoral Neck Scan: Bone Mineral Density, Change From Baseline, OCA - Placebo mean difference / Femoral Neck Scan: T-Score, Change From Baseline, LS Mean / Femoral Neck Scan: T-Score, Change From Baseline, OCA - Placebo mean difference / Femoral Neck Scan: Z-Score, Change From Baseline, LS Mean / Femoral Neck Scan: Z-Score, Change From Baseline, OCA - Placebo mean difference: ANCOVA
Procedure: (§1) PBC patients are randomized to three groups: (a) placebo (PCB), (b) 10 mg OCA, or (c) 5 mg (month 0-6) titrating to 10 mg (month 7-12) OCA. Study medication is administered orally, once daily for 12 months. For patients under pretreatment ursodeoxycholic acid (UDCA) treatment, the pre-treatment dose of UDCA is continued throughout their treatment. Bone density is measured by DEXA scans. DEXA scans of the lumbar spine and femoral neck are conducted at Day 0 and Month 12. Additional measurement may be conducted after Month 12 (e.g., annually after Month 12) as necessary and appropriate. The timing of the DEXA scans is not critical, and may be conducted±2 weeks. […] Subjects with PBC±UDCA (if taking UDCA, patients were maintained on a stable dose) with ALP≧1.67×ULN or bilirubin<2×ULN were randomized to placebo (PBO), OCA 5 or 10 mg for 12 months. Subjects on 5 mg were titrated to 10 mg after 6 months (OCA Titration) based on clinical response and tolerability. Dual-emission X-ray absorptiometry (DEXA) scan was used to assess BMD in a subset of subjects prior to and following 12 months of OCA or placebo treatment. Changes from baseline at Month 12 were analyzed using an ANCOVA model with baseline values as a covariate. Osteopenia and osteoporosis were based on WHO thresholds: T score −1.0 to ≦−2.5 […].

[2] = DEXA scan of the lumbar spine (T-score, Z-score, BMD) in PBC subjects, 12 months OCA or placebo; format: in vivo, human; settings: for Lumbar Spine Scan: Bone Mineral Density, Change From Baseline, Mean / Lumbar Spine Scan: Bone Mineral Density, Change From Baseline, Median / Lumbar Spine Scan: Bone Mineral Density, Result, Mean / Lumbar Spine Scan: Bone Mineral Density, Result, Median / Lumbar Spine Scan: T-Score, Change From Baseline, Mean / Lumbar Spine Scan: T-Score, Change From Baseline, Median / Lumbar Spine Scan: T-Score, Result, Mean / Lumbar Spine Scan: T-Score, Result, Median / Lumbar Spine Scan: Z-Score, Change From Baseline, Mean / Lumbar Spine Scan: Z-Score, Change From Baseline, Median / Lumbar Spine Scan: Z-Score, Result, Mean / Lumbar Spine Scan: Z-Score, Result, Median / Lumbar Spine Scan: Bone Mineral Density, Change From Baseline, LS Mean / Lumbar Spine Scan: Bone Mineral Density, Change From Baseline, OCA - Placebo mean difference / Lumbar Spine Scan: T-Score, Change From Baseline, LS Mean / Lumbar Spine Scan: T-Score, Change From Baseline, OCA - Placebo mean difference / Lumbar Spine Scan: Z-Score, Change From Baseline, LS Mean / Lumbar Spine Scan: Z-Score, Change From Baseline, OCA - Placebo mean difference: orally once daily, DB Month 12, subjects with PBC; for Lumbar Spine Scan: Bone Mineral Density, Change From Baseline, LS Mean / Lumbar Spine Scan: Bone Mineral Density, Change From Baseline, OCA - Placebo mean difference / Lumbar Spine Scan: T-Score, Change From Baseline, LS Mean / Lumbar Spine Scan: T-Score, Change From Baseline, OCA - Placebo mean difference / Lumbar Spine Scan: Z-Score, Change From Baseline, LS Mean / Lumbar Spine Scan: Z-Score, Change From Baseline, OCA - Placebo mean difference: ANCOVA
Procedure: as §1

[3] = Titration OCA (5 mg, titrated to 10 mg after 6 months)

SMILES: CC[C@H]1[C@@H](O)[C@@H]2[C@H](CC[C@]3(C)[C@@H]([C@H](C)CCC(=O)O)CC[C@@H]23)[C@@]2(C)CC[C@@H](O)C[C@@H]12 [OCA, 3α,7α-dihydroxy-6α-ethyl-5β-cholan-24-oic acid]
- Femoral Neck Scan: Bone Mineral Density, Change From Baseline, Mean ([1]; 10 mg OCA): −0.034 g/cm^2
- Femoral Neck Scan: Bone Mineral Density, Change From Baseline, Median ([1]; 10 mg OCA): −0.018 g/cm^2
- Femoral Neck Scan: Bone Mineral Density, Result, Mean ([1]; 10 mg OCA): 0.813 g/cm^2
- Femoral Neck Scan: Bone Mineral Density, Result, Median ([1]; 10 mg OCA): 0.779 g/cm^2
- Femoral Neck Scan: T-Score, Change From Baseline, Mean ([1]; 10 mg OCA): −0.11
- Femoral Neck Scan: T-Score, Change From Baseline, Median ([1]; 10 mg OCA): −0.10
- Femoral Neck Scan: T-Score, Result, Mean ([1]; 10 mg OCA): −1.06
- Femoral Neck Scan: T-Score, Result, Median ([1]; 10 mg OCA): −1.05
- Femoral Neck Scan: Z-Score, Change From Baseline, Mean ([1]; 10 mg OCA): −0.06
- Femoral Neck Scan: Z-Score, Change From Baseline, Median ([1]; 10 mg OCA): 0.00
- Femoral Neck Scan: Z-Score, Result, Mean ([1]; 10 mg OCA): −0.01
- Femoral Neck Scan: Z-Score, Result, Median ([1]; 10 mg OCA): −0.10
- Femoral Neck Scan: Bone Mineral Density, Change From Baseline, LS Mean ([1]; 10 mg OCA): −0.04 g/cm^2
- Femoral Neck Scan: Bone Mineral Density, Change From Baseline, OCA - Placebo mean difference ([1]; 10 mg OCA): −0.02 g/cm^2
- Femoral Neck Scan: T-Score, Change From Baseline, LS Mean ([1]; 10 mg OCA): −0.07
- Femoral Neck Scan: T-Score, Change From Baseline, OCA - Placebo mean difference ([1]; 10 mg OCA): 0.26
- Femoral Neck Scan: Z-Score, Change From Baseline, LS Mean ([1]; 10 mg OCA): −0.07
- Femoral Neck Scan: Z-Score, Change From Baseline, OCA - Placebo mean difference ([1]; 10 mg OCA): 0.05
- Femoral Neck Scan: Bone Mineral Density, Change From Baseline, Mean [1, 3]: −0.003 g/cm^2
- Femoral Neck Scan: Bone Mineral Density, Change From Baseline, Median [1, 3]: −0.004 g/cm^2
- Femoral Neck Scan: Bone Mineral Density, Result, Mean [1, 3]: 0.809 g/cm^2
- Femoral Neck Scan: Bone Mineral Density, Result, Median [1, 3]: 0.822 g/cm^2
- Femoral Neck Scan: T-Score, Change From Baseline, Mean [1, 3]: −0.03
- Femoral Neck Scan: T-Score, Change From Baseline, Median [1, 3]: −0.05
- Femoral Neck Scan: T-Score, Result, Mean [1, 3]: −1.28
- Femoral Neck Scan: T-Score, Result, Median [1, 3]: −1.45
- Femoral Neck Scan: Z-Score, Change From Baseline, Mean [1, 3]: 0.01
- Femoral Neck Scan: Z-Score, Change From Baseline, Median [1, 3]: 0.00
- Femoral Neck Scan: Z-Score, Result, Mean [1, 3]: −0.23
- Femoral Neck Scan: Z-Score, Result, Median [1, 3]: −0.45
- Femoral Neck Scan: Bone Mineral Density, Change From Baseline, LS Mean [1, 3]: −0.01 g/cm^2
- Femoral Neck Scan: Bone Mineral Density, Change From Baseline, OCA - Placebo mean difference [1, 3]: 0.01 g/cm^2
- Femoral Neck Scan: T-Score, Change From Baseline, LS Mean [1, 3]: −0.06
- Femoral Neck Scan: T-Score, Change From Baseline, OCA - Placebo mean difference [1, 3]: 0.27
- Femoral Neck Scan: Z-Score, Change From Baseline, LS Mean [1, 3]: −0.01
- Femoral Neck Scan: Z-Score, Change From Baseline, OCA - Placebo mean difference [1, 3]: 0.10
- decrease in femoral bone mineral density T-score versus placebo ([1]; both OCA groups, Baseline to Month 12, subjects with PBC, p<0.05): smaller decrease
- Lumbar Spine Scan: Bone Mineral Density, Change From Baseline, Mean ([2]; 10 mg OCA): −0.012 g/cm^2
- Lumbar Spine Scan: Bone Mineral Density, Change From Baseline, Median ([2]; 10 mg OCA): −0.013 g/cm^2
- Lumbar Spine Scan: Bone Mineral Density, Result, Mean ([2]; 10 mg OCA): 1.003 g/cm^2
- Lumbar Spine Scan: Bone Mineral Density, Result, Median ([2]; 10 mg OCA): 0.976 g/cm^2
- Lumbar Spine Scan: T-Score, Change From Baseline, Mean ([2]; 10 mg OCA): −0.17
- Lumbar Spine Scan: T-Score, Change From Baseline, Median ([2]; 10 mg OCA): −0.10
- Lumbar Spine Scan: T-Score, Result, Mean ([2]; 10 mg OCA): −1.02
- Lumbar Spine Scan: T-Score, Result, Median ([2]; 10 mg OCA): −1.20
- Lumbar Spine Scan: Z-Score, Change From Baseline, Mean ([2]; 10 mg OCA): −0.03
- Lumbar Spine Scan: Z-Score, Change From Baseline, Median ([2]; 10 mg OCA): 0.00
- Lumbar Spine Scan: Z-Score, Result, Mean ([2]; 10 mg OCA): 0.01
- Lumbar Spine Scan: Z-Score, Result, Median ([2]; 10 mg OCA): 0.00
- Lumbar Spine Scan: Bone Mineral Density, Change From Baseline, LS Mean ([2]; 10 mg OCA): −0.01 g/cm^2
- Lumbar Spine Scan: Bone Mineral Density, Change From Baseline, OCA - Placebo mean difference ([2]; 10 mg OCA): 0.00 g/cm^2
- Lumbar Spine Scan: T-Score, Change From Baseline, LS Mean ([2]; 10 mg OCA): −0.09
- Lumbar Spine Scan: T-Score, Change From Baseline, OCA - Placebo mean difference ([2]; 10 mg OCA): 0.16
- Lumbar Spine Scan: Z-Score, Change From Baseline, LS Mean ([2]; 10 mg OCA): −0.03
- Lumbar Spine Scan: Z-Score, Change From Baseline, OCA - Placebo mean difference ([2]; 10 mg OCA): −0.05
- Lumbar Spine Scan: Bone Mineral Density, Change From Baseline, Mean [2, 3]: −0.014 g/cm^2
- Lumbar Spine Scan: Bone Mineral Density, Change From Baseline, Median [2, 3]: −0.007 g/cm^2
- Lumbar Spine Scan: Bone Mineral Density, Result, Mean [2, 3]: 1.013 g/cm^2
- Lumbar Spine Scan: Bone Mineral Density, Result, Median [2, 3]: 0.994 g/cm^2
- Lumbar Spine Scan: T-Score, Change From Baseline, Mean [2, 3]: −0.06
- Lumbar Spine Scan: T-Score, Change From Baseline, Median [2, 3]: 0.00
- Lumbar Spine Scan: T-Score, Result, Mean [2, 3]: −1.10
- Lumbar Spine Scan: T-Score, Result, Median [2, 3]: −1.35
- Lumbar Spine Scan: Z-Score, Change From Baseline, Mean [2, 3]: 0.00
- Lumbar Spine Scan: Z-Score, Change From Baseline, Median [2, 3]: 0.00
- Lumbar Spine Scan: Z-Score, Result, Mean [2, 3]: 0.02
- Lumbar Spine Scan: Z-Score, Result, Median [2, 3]: −0.20
- Lumbar Spine Scan: Bone Mineral Density, Change From Baseline, LS Mean [2, 3]: −0.01 g/cm^2
- Lumbar Spine Scan: Bone Mineral Density, Change From Baseline, OCA - Placebo mean difference [2, 3]: −0.01 g/cm^2
- Lumbar Spine Scan: T-Score, Change From Baseline, LS Mean [2, 3]: −0.01
- Lumbar Spine Scan: T-Score, Change From Baseline, OCA - Placebo mean difference [2, 3]: 0.25
- Lumbar Spine Scan: Z-Score, Change From Baseline, LS Mean [2, 3]: 0.00
- Lumbar Spine Scan: Z-Score, Change From Baseline, OCA - Placebo mean difference [2, 3]: −0.01
- Lumbar bone mineral density change, OCA groups versus placebo ([2]; both OCA groups, Baseline to Month 12, subjects with PBC): No significant difference; also recorded: not significant
